According to article PMC11111691, “Cystine-knot peptide inhibitors of HTRA1 bind to a cryptic pocket within the active site region” (Nature Communications, 2024):
Positions of bridges follow the written chain, without caps; N, C: chain ends. Residues, ends and D or L forms follow the SMILES beside them.

Key:
HTRA4^PD/PDZ, HTRA4^FL [1] = target: T1, HTRA4^PD/PDZ, HTRA4^FL (Homo sapiens, UniProt P83105); assay: H2-OPT selectivity assay, HTRA4; assay type: biochemical; settings: 1 µM HTRA4^PD/PDZ, 2 µM CKP (0.5 mM 7mer-ABP), 5 µM H2-OPT
T1 construct: purchased Abcam (FL form); the PD/PDZ form was made in house in E. coli ab134444
T1 sequence (P83105 153-476): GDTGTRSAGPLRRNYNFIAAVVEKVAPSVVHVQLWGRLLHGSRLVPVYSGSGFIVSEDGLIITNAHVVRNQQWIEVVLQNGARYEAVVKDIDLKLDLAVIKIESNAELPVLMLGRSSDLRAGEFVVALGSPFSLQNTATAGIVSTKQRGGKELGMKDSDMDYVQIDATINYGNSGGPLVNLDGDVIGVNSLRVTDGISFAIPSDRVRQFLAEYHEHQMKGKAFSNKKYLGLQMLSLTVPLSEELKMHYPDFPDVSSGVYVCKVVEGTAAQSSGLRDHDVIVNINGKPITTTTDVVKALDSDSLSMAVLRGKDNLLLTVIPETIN
Procedure: (§1) Assays with the fluorescence-quenched synthetic substrate Mca-IRRVSYSFK(Dnp)K (H2-OPT)[38],[60] were carried out essentially as described. CKP stock solutions in DMSO were diluted in TNC buffer (dilution series for IC50 determinations, or final concentration of 2 µM for selectivity assay or as indicated for HTRA1/4 mutants) and incubated with enzymes in 96-well black optical bottom plates for 60 min at 37 °C. For selectivity experiments we used the 7mer-ABP as inhibitor, which was incubated with the proteases for 15 min at 37 °C. A 10 mM stock solution of H2-OPT in DMSO was diluted with water, prewarmed at 37 °C and then added to the CKP-enzyme mixtures. The final concentrations in the reaction mixtures were: 1 nM HTRA1^FL, 3 nM HTRA1^PD/PDZ, 1 nM HTRA1^PD, 1 nM HTRA2^PD/PDZ, 3 nM HTRA3^FL, 60 nM HTRA3^PD/PDZ, 6 nM HTRA4^FL, 1 µM HTRA4^PD/PDZ, 1 nM mouse HTRA1^PD, 25 nM HTRA1^PD-A202Y, 1 µM HTRA4^PD/PDZ-Y200A, 0.5 mM 7mer-ABP, 5 µM H2-OPT, and 0.25% DMSO. The kinetics of substrate cleavage was measured at 37 °C on a SpectraMax M5 microplate reader with excitation of 328 nm and emission of 393 nm. The determined initial rates of cleavage were expressed as percent of control (DMSO control) after subtracting the baseline rates (without enzyme). IC50 values were determined by Sigmoidal 4PL modeling of multiple data points from serial dilutions of CKPs using Prism 9 software (GraphPad). For selectivity assays with HTRA1-4^PD/PDZ constructs, the specific activities of the enzymes and enzyme:CKP inhibitor ratios were as follows: HTRA1^PD/PDZ, 12560 mRFU/min/nM – 1:667; HTRA2^PD/PDZ, 32300 mRFU/min/nM – 1:2000; HTRA3^PD/PDZ, 962 mRFU/min/nM – 1:33; HTRA4^PD/PDZ, 18 mRFU/min/nM – 1:2.

HTRA4^PD/PDZ, HTRA4^FL [2] = target: T2, HTRA4^PD/PDZ, HTRA4^FL (Homo sapiens, UniProt P83105); assay: H2-OPT selectivity assay, HTRA4; assay type: biochemical; settings: 6 nM HTRA4^FL, 2 µM CKP (0.5 mM 7mer-ABP)
T2 construct: purchased Abcam (FL form); the PD/PDZ form was made in house in E. coli ab134444
T2 sequence (P83105 32-476): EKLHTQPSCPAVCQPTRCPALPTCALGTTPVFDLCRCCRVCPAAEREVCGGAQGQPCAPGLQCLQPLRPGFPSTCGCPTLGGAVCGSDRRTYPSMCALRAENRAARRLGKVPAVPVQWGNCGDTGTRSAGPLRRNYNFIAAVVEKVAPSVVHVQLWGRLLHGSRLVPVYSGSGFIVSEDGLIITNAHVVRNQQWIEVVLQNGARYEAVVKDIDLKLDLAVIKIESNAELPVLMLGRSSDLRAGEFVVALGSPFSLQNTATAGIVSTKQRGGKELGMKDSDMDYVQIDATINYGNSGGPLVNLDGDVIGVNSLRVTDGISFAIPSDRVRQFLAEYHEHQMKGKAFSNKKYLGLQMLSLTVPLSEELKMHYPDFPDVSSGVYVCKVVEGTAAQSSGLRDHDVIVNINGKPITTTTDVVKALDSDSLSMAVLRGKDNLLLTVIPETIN
Procedure: as §1

HTRA1^FL = target: T3, HTRA1^FL (Homo sapiens, UniProt Q92743); assay: HTRA1^FL enzyme inhibition assay with synthetic substrate H2-OPT; assay type: biochemical
T3 construct: Human full-length HTRA1 (HTRA1^FL, Q23-P480); made in house; host or cells: Trichoplusia ni cells
Procedure: as §1

HTRA1^PD(SA) = target: T4, HTRA1^PD(SA) (Homo sapiens, UniProt Q92743, S328A); assay: SPR binding kinetics to HTRA1^PD(SA); settings: mean ± S.D. of three or more independent experiments
T4 construct: The protease domains of human HTRA1 (HTRA1^PD; D161-K379); made in house; host or cells: E. coli
Procedure: Surface plasmon resonance (SPR) experiments were performed using a Biacore S200 instrument at 25 °C. His-tagged HTRA proteins were captured on a CM5 sensor chip using the His-capture kit (GE Healthcare). Protein concentrations used for immobilization were as follows; HTRA1^PD(SA), HTRA1^PD and HTRA1^PD-ABP 2 µg/ml with 60-s injections at 10 µl/min, HTRA2^PD/PDZ, HTRA3^PD/PDZ, and HTRA4^PD/PDZ 4 µg/ml with 60-s injections at 10 µl/min. Approximate immobilization levels of HTRA proteins were as follows; HTRA1^PD(SA) 700 RU, HTRA1^PD 900 RU, HTRA1^PD-ABP 900 RU, HTRA2^PD/PDZ 500 RU, HTRA3^PD/PDZ 500 RU, HTRA4^PD/PDZ 500 RU. All CKPs were prepared in HBS-EP buffer (0.01 M HEPES pH 7.4, 0.15 M NaCl, 3 mM EDTA, 0.005% v/v Surfactant P20). All CKP concentrations were injected for 120 s at a flow rate of 30 μl/min. A reference channel was subtracted from the HTRA-captured channel.
Binding kinetics of peptides to HTRA1^PD(SA) were determined by flowing six serial three-fold dilutions of peptide over the HTRA1^PD(SA) immobilized surface using a single cycle kinetics model. CKP maximum concentrations were as follows: 1A7, 1A8, 1C10, 2D5, and 3A7, 300 nM; 1G10-ENI and 1D3-ENI, 100 nM; 3B3, 3000 nM; and CPI, 10,000 nM. Data were analyzed using GE BIA evaluation software using a 1:1 Langmuir binding model. The KD values, calculated from the determined kon and koff values, were the mean ± S.D. of 3–4 independent experiments.

[3] = SPR Biacore S200, 25 °C, single cycle kinetics, 1:1 Langmuir model

T4 sequence (Q92743 161-379 S328A): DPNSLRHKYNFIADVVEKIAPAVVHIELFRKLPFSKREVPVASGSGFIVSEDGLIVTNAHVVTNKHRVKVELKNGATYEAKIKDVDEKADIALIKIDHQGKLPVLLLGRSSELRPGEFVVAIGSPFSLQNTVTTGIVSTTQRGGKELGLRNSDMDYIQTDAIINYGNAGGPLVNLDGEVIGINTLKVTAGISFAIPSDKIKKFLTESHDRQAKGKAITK
T3 sequence (Q92743 23-480): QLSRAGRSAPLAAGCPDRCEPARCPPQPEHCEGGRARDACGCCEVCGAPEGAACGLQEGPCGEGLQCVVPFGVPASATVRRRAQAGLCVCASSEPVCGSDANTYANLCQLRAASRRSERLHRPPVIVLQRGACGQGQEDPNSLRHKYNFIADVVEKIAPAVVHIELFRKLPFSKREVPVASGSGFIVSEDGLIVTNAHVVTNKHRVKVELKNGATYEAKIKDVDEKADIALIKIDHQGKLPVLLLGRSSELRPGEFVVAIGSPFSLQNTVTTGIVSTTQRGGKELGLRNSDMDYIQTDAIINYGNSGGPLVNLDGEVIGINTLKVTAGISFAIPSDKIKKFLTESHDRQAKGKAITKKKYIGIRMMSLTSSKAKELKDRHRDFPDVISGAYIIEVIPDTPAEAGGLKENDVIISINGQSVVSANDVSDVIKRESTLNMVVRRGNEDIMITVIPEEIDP

| Inhibition of HTRA4^PD/PDZ, H2-OPT (% of control) (HTRA4^PD/PDZ, HTRA4^FL [1]) | Inhibition of HTRA4^FL, H2-OPT (% of control) (HTRA4^PD/PDZ, HTRA4^FL [2]) | Inhibition of HTRA1^FL at single concentration, H2-OPT (% of control) (HTRA1^FL; 1 nM HTRA1^FL, 2 µM CKP (0.5 mM 7mer-ABP)) | Molecule | IC50 (HTRA1^FL) | koff (HTRA1^PD(SA); [3]) | kon (HTRA1^PD(SA); [3]) | Kd (HTRA1^PD(SA); SPR, calculated from kon and koff, CPI up to 10 µM) |
| --- | --- | --- | --- | --- | --- | --- | --- |
| significantly inhibited | significantly inhibited | significantly inhibited | DPMFKLV-phosphonate [7mer-ABP] |  |  |  |  |
|  |  |  | CC[C@H](C)[C@H](NC(=O)[C@@H]1CCCN1C(=O)[C@H](CC(=O)O)NC(=O)[C@H](C)NC(=O)[C@@H](N)Cc1c[nH]cn1)C(=O)N[C@H]1CSSC[C@@H]2NC(=O)[C@H](Cc3ccccc3)NC(=O)[C@H](Cc3c[nH]c4ccccc34)NC(=O)[C@H](C)NC(=O)CNC(=O)[C@H](CO)NC(=O)[C@@H]3CSSC[C@@H](C(=O)NCC(=O)N4CCC[C@H]4C(=O)N[C@@H](Cc4ccc(O)cc4)C(=O)N[C@H](C(=O)NCC(N)=O)C(C)C)NC(=O)[C@H](CO)NC(=O)[C@H](Cc4c[nH]c5ccccc45)NC(=O)[C@H]([C@@H](C)O)NC(=O)[C@H](C)NC(=O)[C@H](Cc4ccc(O)cc4)NC(=O)[C@H](Cc4ccc(O)cc4)NC(=O)[C@H](CSSC[C@H](NC(=O)[C@@H]4CCCN4C(=O)[C@H](CCCCN)NC(=O)[C@H](CC(N)=O)NC1=O)C(=O)N[C@@H](CCCCN)C(=O)N[C@@H]([C@@H](C)O)C(=O)N[C@@H](Cc1c[nH]cn1)C(=O)N[C@@H](CC(=O)O)C(=O)N[C@@H](CC(=O)O)C(=O)N3)NC(=O)[C@H](C)NC(=O)[C@H](CCC(N)=O)NC2=O [3B3] (H-HADPICNKPCKTHDDCSGAWFCQACYYATWSCGPYVG-NH2; disulfide 6-22, 10-25, 16-32) | 53 nM | 3.8 ± 0.5 s-1 x10-4 | 1.1 ± 0.2 M-1 s-1 x104 | 34 nM |
